{"source": "paper PMC8313041", "about": "(Heterocyclic communications, 2015)", "origin": "cited, not measured here", "key": {"[1]": {"system": "human leukemic T-cell lines"}, "[2]": {"system": "HIV-1"}}, "data": [{"smiles": "Nc1nc2c(ncn2[C@@H]2O[C@H](CO)[C@@H](O)[C@@H]2F)c(=O)[nH]1", "note": "[Compound 3, 9-(2′-deoxy-2′-fluoro-β-D-arabinofuranosyl)guanine]", "values": [{"measurement": "activity against human leukemic T-cell lines", "setting": "[1]", "value": "displays activity against human leukemic T-cell lines"}]}, {"smiles": "Nc1ncnc2c1ncn2[C@@H]1O[C@H](CO)[C@@H](F)[C@@H]1F", "note": "[Compound 2, 9-(2′,3′-dideoxy-2′,3′-difluoro-β-D-arabinofuranosyl)adenine]", "values": [{"measurement": "in vitro potency against HIV-1 compared with lodenosine", "setting": "[2]", "value": "more potent in vitro against HIV-1 than lodenosine 1"}]}, {"smiles": "Nc1ncnc2c1ncn2[C@@H]1O[C@H](CO)C[C@@H]1F", "note": "[lodenosine, 2′-β-fluoro-2′,3′-dideoxyadenosine]", "values": [{"measurement": "in vitro activity against HIV-1", "setting": "[2]", "value": "displays in vitro activity against HIV-1"}]}]}
